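Step 1: Grow cells in 96-well plates. Step 2: Expose to compound for 48 hours at 5 concentrations. Step 3: Interpolate endpoints linearly; if unreached, use highest concentration. Here, GI50 denotes the concentration required for 50% inhibition of growth. TGI: total growth inhibition.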
Key:
Assay in all cases: growth of human tumour cells (NCI), 48 h
OVCAR-4 ovarian = test system: OVCAR-4 ovarian
M14 melanoma = test system: M14 melanoma
NCI-H226 lung = test system: NCI-H226 lung
RXF 393 renal = test system: RXF 393 renal
SF-268 CNS = test system: SF-268 CNS
SK-MEL-28 melanoma = test system: SK-MEL-28 melanoma
SW-620 colon = test system: SW-620 colon
MDA-MB-435 = test system: MDA-MB-435
MCF7 breast = test system: MCF7 breast
T-47D breast = test system: T-47D breast
NCI-H23 lung = test system: NCI-H23 lung
MALME-3M melanoma = test system: MALME-3M melanoma
HCT-116 colon = test system: HCT-116 colon
RPMI-8226 leukemia = test system: RPMI-8226 leukemia
786-0 renal = test system: 786-0 renal
KM12 colon = test system: KM12 colon
SK-OV-3 ovarian = test system: SK-OV-3 ovarian
A498 renal = test system: A498 renal
HT29 colon = test system: HT29 colon
MOLT-4 leukemia = test system: MOLT-4 leukemia
HS 578T breast = test system: HS 578T breast
SR leukemia = test system: SR leukemia
LOX IMVI melanoma = test system: LOX IMVI melanoma
MDA-MB-231 breast = test system: MDA-MB-231 breast
SK-MEL-5 melanoma = test system: SK-MEL-5 melanoma
HCC-2998 colon = test system: HCC-2998 colon
CAKI-1 renal = test system: CAKI-1 renal
NCI/ADR-RES ovarian = test system: NCI/ADR-RES ovarian
UO-31 renal = test system: UO-31 renal
HL-60(TB) leukemia = test system: HL-60(TB) leukemia
K-562 leukemia = test system: K-562 leukemia
IGROV1 ovarian = test system: IGROV1 ovarian
OVCAR-3 ovarian = test system: OVCAR-3 ovarian
HOP-92 NSCLC = test system: HOP-92 NSCLC
SF-539 CNS = test system: SF-539 CNS
COLO 205 colon = test system: COLO 205 colon
OVCAR-8 ovarian = test system: OVCAR-8 ovarian
HCT-15 colon = test system: HCT-15 colon
HOP-62 NSCLC = test system: HOP-62 NSCLC
SF-295 CNS = test system: SF-295 CNS
EKVX NSCLC = test system: EKVX NSCLC
A549 NSCLC = test system: A549 NSCLC
SK-MEL-2 melanoma = test system: SK-MEL-2 melanoma
BT-549 breast = test system: BT-549 breast
PC-3 prostate = test system: PC-3 prostate
TK-10 renal = test system: TK-10 renal
DU-145 prostate = test system: DU-145 prostate
U251 CNS = test system: U251 CNS
UACC-62 melanoma = test system: UACC-62 melanoma
SN12C renal = test system: SN12C renal
NCI-H460 lung = test system: NCI-H460 lung
ACHN renal = test system: ACHN renal
OVCAR-5 ovarian = test system: OVCAR-5 ovarian
SNB-19 CNS = test system: SNB-19 CNS
SNB-75 CNS = test system: SNB-75 CNS
CCRF-CEM leukemia = test system: CCRF-CEM leukemia
UACC-257 melanoma = test system: UACC-257 melanoma

Structure (SMILES): C#C[C@]1(O)CC[C@H]2[C@@H]3CC=C4c5sc(Nc6cc(Cl)ccc6OC)nc5CC[C@]4(C)[C@H]3CC[C@@]21C
- GI50 (OVCAR-4 ovarian): 3.54 µM
- TGI (OVCAR-4 ovarian): > 100 µM
- GI50 (M14 melanoma): 1.4 µM
- TGI (M14 melanoma): 4.93 µM
- GI50 (NCI-H226 lung): 1.62 µM
- TGI (NCI-H226 lung): 3.51 µM
- GI50 (RXF 393 renal): 0.178 µM
- TGI (RXF 393 renal): 0.503 µM
- GI50 (SF-268 CNS): 2.21 µM
- TGI (SF-268 CNS): > 100 µM
- GI50 (SK-MEL-28 melanoma): 0.42 µM
- TGI (SK-MEL-28 melanoma): 1.66 µM
- GI50 (SW-620 colon): 1.67 µM
- TGI (SW-620 colon): 3.86 µM
- GI50 (MDA-MB-435): 1.89 µM
- TGI (MDA-MB-435): 5.41 µM
- GI50 (MCF7 breast): 0.808 µM
- TGI (MCF7 breast): 2.35 µM
- GI50 (T-47D breast): 2.41 µM
- TGI (T-47D breast): > 100 µM
- GI50 (NCI-H23 lung): 1.81 µM
- TGI (NCI-H23 lung): > 100 µM
- GI50 (MALME-3M melanoma): 1.33 µM
- TGI (MALME-3M melanoma): 3.7 µM
- GI50 (HCT-116 colon): 1.13 µM
- TGI (HCT-116 colon): 2.56 µM
- GI50 (RPMI-8226 leukemia): 0.251 µM
- TGI (RPMI-8226 leukemia): 0.684 µM
- GI50 (786-0 renal): 0.381 µM
- TGI (786-0 renal): 1.97 µM
- GI50 (KM12 colon): 1.97 µM
- TGI (KM12 colon): 4.35 µM
- GI50 (SK-OV-3 ovarian): 4.27 µM
- TGI (SK-OV-3 ovarian): > 100 µM
- GI50 (A498 renal): 0.219 µM
- TGI (A498 renal): 1.05 µM
- GI50 (HT29 colon): 1.79 µM
- TGI (HT29 colon): 4.86 µM
- GI50 (MOLT-4 leukemia): 0.454 µM
- TGI (MOLT-4 leukemia): 4.6 µM
- GI50 (HS 578T breast): 0.486 µM
- TGI (HS 578T breast): 5.87 µM
- GI50 (SR leukemia): 0.578 µM
- TGI (SR leukemia): 4.51 µM
- GI50 (LOX IMVI melanoma): 1.38 µM
- TGI (LOX IMVI melanoma): 2.88 µM
- GI50 (MDA-MB-231 breast): 1.96 µM
- TGI (MDA-MB-231 breast): 4.88 µM
- GI50 (SK-MEL-5 melanoma): 1.93 µM
- TGI (SK-MEL-5 melanoma): 4.05 µM
- GI50 (HCC-2998 colon): 1.75 µM
- TGI (HCC-2998 colon): 3.39 µM
- GI50 (CAKI-1 renal): 1.52 µM
- TGI (CAKI-1 renal): 4.15 µM
- GI50 (NCI/ADR-RES ovarian): 2.52 µM
- TGI (NCI/ADR-RES ovarian): 48.8 µM
- GI50 (UO-31 renal): 1.45 µM
- TGI (UO-31 renal): 3.04 µM
- GI50 (HL-60(TB) leukemia): 0.84 µM
- TGI (HL-60(TB) leukemia): 3.96 µM
- GI50 (K-562 leukemia): 0.581 µM
- TGI (K-562 leukemia): 9.42 µM
- GI50 (IGROV1 ovarian): 1.79 µM
- TGI (IGROV1 ovarian): 5.64 µM
- GI50 (OVCAR-3 ovarian): 1.64 µM
- TGI (OVCAR-3 ovarian): 3.56 µM
- GI50 (HOP-92 NSCLC): 2.47 µM
- TGI (HOP-92 NSCLC): 6.75 µM
- GI50 (SF-539 CNS): 0.359 µM
- TGI (SF-539 CNS): 1.46 µM
- GI50 (COLO 205 colon): 2.19 µM
- TGI (COLO 205 colon): 4.39 µM
- GI50 (OVCAR-8 ovarian): 3.55 µM
- TGI (OVCAR-8 ovarian): > 100 µM
- GI50 (HCT-15 colon): 1.33 µM
- TGI (HCT-15 colon): 3.26 µM
- GI50 (HOP-62 NSCLC): 2.56 µM
- TGI (HOP-62 NSCLC): > 100 µM
- GI50 (SF-295 CNS): 0.306 µM
- TGI (SF-295 CNS): 1.12 µM
- GI50 (EKVX NSCLC): 1.63 µM
- TGI (EKVX NSCLC): 6.39 µM
- GI50 (A549 NSCLC): 2.86 µM
- TGI (A549 NSCLC): > 100 µM
- GI50 (SK-MEL-2 melanoma): 1.3 µM
- TGI (SK-MEL-2 melanoma): 4.61 µM
- GI50 (BT-549 breast): 0.797 µM
- TGI (BT-549 breast): 5.46 µM

Structure (SMILES): Cc1ccc(-c2csc(N/N=C/c3nc4ccccc4n3C3CC3)n2)cc1
- GI50 (OVCAR-4 ovarian): 1.74 µM
- TGI (OVCAR-4 ovarian): 3.33 µM
- GI50 (M14 melanoma): 1.75 µM
- TGI (M14 melanoma): 3.43 µM
- GI50 (NCI-H226 lung): 8.34 µM
- TGI (NCI-H226 lung): > 100 µM
- GI50 (PC-3 prostate): 12 µM
- TGI (PC-3 prostate): 25.7 µM
- GI50 (RXF 393 renal): 1.95 µM
- TGI (RXF 393 renal): 4.46 µM
- GI50 (SF-268 CNS): 4.21 µM
- TGI (SF-268 CNS): 21.1 µM
- GI50 (SK-MEL-28 melanoma): 1.82 µM
- TGI (SK-MEL-28 melanoma): 3.35 µM
- GI50 (SW-620 colon): 1.62 µM
- TGI (SW-620 colon): 3.29 µM
- GI50 (TK-10 renal): 1.68 µM
- TGI (TK-10 renal): 3.05 µM
- GI50 (MDA-MB-435): 10.5 µM
- TGI (MDA-MB-435): 23.6 µM
- GI50 (MCF7 breast): 1.92 µM
- TGI (MCF7 breast): 4.39 µM
- GI50 (T-47D breast): 2.14 µM
- TGI (T-47D breast): 5.27 µM
- GI50 (NCI-H23 lung): 20 µM
- TGI (NCI-H23 lung): 61 µM
- GI50 (MALME-3M melanoma): 1.99 µM
- TGI (MALME-3M melanoma): 3.84 µM
- GI50 (DU-145 prostate): 1.83 µM
- TGI (DU-145 prostate): 3.42 µM
- GI50 (U251 CNS): 2.72 µM
- TGI (U251 CNS): 8.33 µM
- GI50 (RPMI-8226 leukemia): 1.95 µM
- TGI (RPMI-8226 leukemia): 4.71 µM
- GI50 (786-0 renal): 4.12 µM
- TGI (786-0 renal): 16 µM
- GI50 (UACC-62 melanoma): 16.5 µM
- TGI (UACC-62 melanoma): 31 µM
- GI50 (KM12 colon): 16.3 µM
- TGI (KM12 colon): 59.8 µM
- GI50 (SK-OV-3 ovarian): 8.53 µM
- TGI (SK-OV-3 ovarian): > 100 µM
- GI50 (A498 renal): 14.4 µM
- TGI (A498 renal): 33.6 µM
- GI50 (HT29 colon): 1.84 µM
- TGI (HT29 colon): 3.48 µM
- GI50 (MOLT-4 leukemia): 2.18 µM
- TGI (MOLT-4 leukemia): 4.75 µM
- GI50 (SN12C renal): 8.55 µM
- TGI (SN12C renal): 31.5 µM
- GI50 (HS 578T breast): 11.7 µM
- TGI (HS 578T breast): 57 µM
- GI50 (SR leukemia): 2.02 µM
- TGI (SR leukemia): 5.63 µM
- GI50 (LOX IMVI melanoma): 4.61 µM
- TGI (LOX IMVI melanoma): 36.4 µM
- GI50 (MDA-MB-231 breast): 10.6 µM
- TGI (MDA-MB-231 breast): 41.4 µM
- GI50 (SK-MEL-5 melanoma): 2.04 µM
- TGI (SK-MEL-5 melanoma): 11.4 µM
- GI50 (NCI-H460 lung): 7.72 µM
- TGI (NCI-H460 lung): 27.1 µM
- GI50 (HCC-2998 colon): 16.2 µM
- TGI (HCC-2998 colon): 46.5 µM
- GI50 (ACHN renal): 1.58 µM
- TGI (ACHN renal): 3.08 µM
- GI50 (CAKI-1 renal): 1.52 µM
- TGI (CAKI-1 renal): 3.07 µM
- GI50 (NCI/ADR-RES ovarian): 13.6 µM
- TGI (NCI/ADR-RES ovarian): > 100 µM
- GI50 (OVCAR-5 ovarian): 17.6 µM
- TGI (OVCAR-5 ovarian): 39.5 µM
- GI50 (UO-31 renal): 1.6 µM
- TGI (UO-31 renal): 3.05 µM
- GI50 (HL-60(TB) leukemia): 1.86 µM
- TGI (HL-60(TB) leukemia): 4.38 µM
- GI50 (SNB-19 CNS): 5.19 µM
- TGI (SNB-19 CNS): 79.4 µM
- GI50 (IGROV1 ovarian): 5.73 µM
- TGI (IGROV1 ovarian): 35.9 µM
- GI50 (HOP-92 NSCLC): 1.65 µM
- TGI (HOP-92 NSCLC): 3.13 µM
- GI50 (SNB-75 CNS): 1.86 µM
- TGI (SNB-75 CNS): 3.9 µM
- GI50 (CCRF-CEM leukemia): 2.15 µM
- TGI (CCRF-CEM leukemia): 5.39 µM
- GI50 (SF-539 CNS): 12.2 µM
- TGI (SF-539 CNS): 27.5 µM
- GI50 (HOP-62 NSCLC): 3.67 µM
- TGI (HOP-62 NSCLC): 49.7 µM
- GI50 (SF-295 CNS): 45.5 µM
- TGI (SF-295 CNS): > 100 µM
- GI50 (EKVX NSCLC): 21 µM
- TGI (EKVX NSCLC): 55.9 µM
- GI50 (UACC-257 melanoma): 1.51 µM
- TGI (UACC-257 melanoma): 2.93 µM
- GI50 (A549 NSCLC): 5.55 µM
- TGI (A549 NSCLC): 26.9 µM
- GI50 (BT-549 breast): 4.47 µM
- TGI (BT-549 breast): 17.6 µM
